This experiment concerns BDF1 mice, P388 leukemia ip, median survival T/C. Briefly: NCI In Vivo Anticancer Drug Screen. Data for tumor model P388 Leukemia (intraperitoneal) in B6D2F1 (BDF1) mice. To be noted: endpoint: median survival time, higher = longer survival. In short, it runs like this: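 Steps: implant the tumour, treat one group with compound and another with vehicle, record survival, then divide treated by control.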

Setting [1] is: dose: 100.0 mg/kg/injection, schedule: Q01DX009 (ip), vehicle: saline with Tween-80.
Setting [2] is: dose: 100.0 mg/kg/injection, schedule: Q04DX003 (ip), vehicle: saline with Tween-80.
The mark [3] stands for this setting: dose: 200.0 mg/kg/injection, schedule: Q01DX009 (ip), vehicle: saline with Tween-80.
Setting [4] is: dose: 200.0 mg/kg/injection, schedule: Q04DX003 (ip), vehicle: saline with Tween-80.
Setting [5] is: dose: 400.0 mg/kg/injection, schedule: Q01DX009 (ip), vehicle: saline with Tween-80.
[6] abbreviates: dose: 400.0 mg/kg/injection, schedule: Q04DX003 (ip), vehicle: saline with Tween-80.
The mark [7] stands for this setting: dose: 25.0 mg/kg/injection, schedule: Q01DX009 (ip), vehicle: saline.
The mark [8] stands for this setting: dose: 50.0 mg/kg/injection, schedule: Q01DX009 (ip), vehicle: saline.
Setting [9] is: dose: 100.0 mg/kg/injection, schedule: Q01DX009 (ip), vehicle: saline.
The mark [10] stands for this setting: dose: 100.0 mg/kg/injection, schedule: Q04DX003 (ip), vehicle: Klucel (hydroxypropylcellulose) (HPC).
Setting [11] is: dose: 200.0 mg/kg/injection, schedule: Q04DX003 (ip), vehicle: Klucel (hydroxypropylcellulose) (HPC).
The mark [12] stands for this setting: dose: 400.0 mg/kg/injection, schedule: Q04DX003 (ip), vehicle: Klucel (hydroxypropylcellulose) (HPC).
Where [13] appears, read: dose: 50.0 mg/kg/injection, schedule: Q01DX009 (ip), vehicle: saline with Tween-80.
The mark [14] stands for this setting: dose: 100.0 mg/kg/injection, schedule: Q01DX009 (ip), vehicle: Klucel (hydroxypropylcellulose) (HPC).
[15] abbreviates: dose: 200.0 mg/kg/injection, schedule: Q01DX009 (ip), vehicle: Klucel (hydroxypropylcellulose) (HPC).
The mark [16] stands for this setting: dose: 400.0 mg/kg/injection, schedule: Q01DX009 (ip), vehicle: Klucel (hydroxypropylcellulose) (HPC).

Values joined by “and” are separate entries in the source; they are usually repeats but may differ in a detail not shown here. Equal values may be shown once. Inconclusive results and toxic doses are left out.

For `COc1cc([C@@H]2c3cc4c(cc3[C@H](O)[C@H]3COC(=O)[C@@H]23)OCO4)cc(OC)c1OC`, the T/C was 115 % of control (dose: 7.7 mg/kg/injection, schedule: Q01DX010 (ip), vehicle: carboxymethylcellulose (CMC)); 166 % of control (dose: 12.0 mg/kg/injection, schedule: Q01DX009 (ip), vehicle: Klucel (hydroxypropylcellulose) (HPC)); 185 % of control (dose: 18.0 mg/kg/injection, schedule: Q01DX009 (ip), vehicle: Klucel (hydroxypropylcellulose) (HPC)); 195 % of control (dose: 27.0 mg/kg/injection, schedule: Q01DX009 (ip), vehicle: Klucel (hydroxypropylcellulose) (HPC)); 210 % of control (dose: 30.8 mg/kg/injection, schedule: Q01DX010 (ip), vehicle: carboxymethylcellulose (CMC)); 113 % of control (dose: 37.5 mg/kg/injection, schedule: Q04DX003 (ip), vehicle: saline sonified). Also, the T/C reads like this: (dose: 40.0 mg/kg/injection, schedule: Q01DX009 (ip), vehicle: Klucel (hydroxypropylcellulose) (HPC)) 233 % of control; (dose: 60.0 mg/kg/injection, schedule: Q01DX009 (ip), vehicle: Klucel (hydroxypropylcellulose) (HPC)) 252 % of control; (dose: 75.0 mg/kg/injection, schedule: Q04DX003 (ip), vehicle: saline sonified) 122 % of control; (dose: 150.0 mg/kg/injection, schedule: Q04DX003 (ip), vehicle: saline sonified) 180 % of control and 204 % of control; (dose: 225.0 mg/kg/injection, schedule: Q04DX003 (ip), vehicle: saline sonified) 300 % of control.

Regarding `CC(=O)Nc1c(Cl)cc2c(c1Cl)Cc1cc([N+](=O)[O-])ccc1-2`, the T/C under setting [1] was 95 % of control; the T/C under setting [2] was 92 % of control and 95 % of control; the T/C under setting [3] was 95 % of control; the T/C under setting [4] is 92 % of control and 95 % of control; the T/C under setting [5] was 100 % of control; the T/C under setting [6] is 91 % of control.

On to `C=CCNCCN1CCN(CCCN2c3ccccc3Sc3ccc(C(F)(F)F)cc32)CC1`, for which the T/C is 108 % of control and 110 % of control (dose: 6.25 mg/kg/injection, schedule: Q04DX003 (ip), vehicle: saline); 87 % of control and 110 % of control (dose: 12.5 mg/kg/injection, schedule: Q04DX003 (ip), vehicle: saline); 100 % of control and 118 % of control (dose: 25.0 mg/kg/injection, schedule: Q04DX003 (ip), vehicle: saline); 116 % of control (dose: 50.0 mg/kg/injection, schedule: Q04DX003 (ip), vehicle: saline).

With `COc1cc2c(cc1OC)C(=O)CN(S(=O)(=O)c1ccc(C)cc1)CC2`, the T/C by setting is: under setting [7], 95 % of control; under setting [8], 104 % of control; under setting [9], 104 % of control; under setting [10], 100 % of control; under setting [11], 95 % of control; under setting [12], 95 % of control.

With `CC1=CC(c2ccc3c(c2)OCO3)c2c(c3ccccc3oc2=O)O1` (stereo not drawn), the T/C by setting is: (dose: 12.5 mg/kg/injection, schedule: Q01DX009 (ip), vehicle: water) 107 % of control; (dose: 100.0 mg/kg/injection, schedule: Q04DX003 (ip), vehicle: water) 104 % of control; (dose: 200.0 mg/kg/injection, schedule: Q04DX003 (ip), vehicle: water) 98 % of control; (dose: 400.0 mg/kg/injection, schedule: Q04DX003 (ip), vehicle: water) 90 % of control.

For the compound `O=[N+]([O-])c1ccc2[nH]c3c(c2c1)CSCC3`, the T/C is 100 % of control under setting [13]; 100 % of control under setting [14]; 96 % of control under setting [1]; 109 % of control under setting [2]; 90 % of control under setting [15]; 107 % of control under setting [4]. Further, the T/C under setting [16] was 86 % of control, the T/C under setting [5] is 91 % of control and the T/C under setting [6] was 110 % of control.

Take `N=C(N)SCCN1C(=O)NC(c2ccccc2)(c2ccccc2)C1=O`: the T/C is 96 % of control and 99 % of control (dose: 6.25 mg/kg/injection, schedule: Q01DX009 (ip), vehicle: saline); 90 % of control and 104 % of control (dose: 12.5 mg/kg/injection, schedule: Q01DX009 (ip), vehicle: saline); 93 % of control and 105 % of control under setting [7]; 102 % of control and 105 % of control under setting [8]; 106 % of control and 120 % of control under setting [9].

Regarding `c1coc(-c2ncnc3c2Cc2ccccc2-3)c1`, the T/C is 100 % of control (dose: 25.0 mg/kg/injection, schedule: Q01DX009 (ip), vehicle: Klucel (hydroxypropylcellulose) (HPC)); 118 % of control (dose: 50.0 mg/kg/injection, schedule: Q01DX009 (ip), vehicle: Klucel (hydroxypropylcellulose) (HPC)); 109 % of control under setting [14]; 91 % of control (dose: 150.0 mg/kg/injection, schedule: Q01DX009 (ip), vehicle: Klucel (hydroxypropylcellulose) (HPC)).

For `OC(Cc1ccccc1)(c1ccccc1)c1cccc2ccccc12` (stereo not drawn), the T/C by setting is: under setting [14], 100 % of control; under setting [15], 100 % of control; under setting [16], 104 % of control.

As for `CC1(C)CCC2(CC1)CC(=O)OC2=O`, the T/C reads like this: under setting [2], 95 % of control; under setting [4], 87 % of control; under setting [6], 104 % of control.

For the compound `O=C(Cl)C1CC2c3ccccc3C1([N+](=O)[O-])c1ccccc12` (stereo not drawn), the T/C was 104 % of control under setting [10], 100 % of control under setting [11] and 113 % of control under setting [12].

As to `CC(C)c1nc(-c2ccccc2)c(-c2ccccc2)[nH]1`, the T/C was 100 % of control under setting [2], 104 % of control under setting [4] and 100 % of control under setting [6].

As for `CCCCOCN(CCCc1ccccc1)COCCCC`, the T/C under setting [1] was 121 % of control.

Consider `CC(=O)OC(c1nc2ccccc2c(=O)n1C1CC2(OC1=O)c1ccccc1N1C(=O)C(C)N(O)C12)C(C)C` (stereo not drawn), for which the T/C is, setting by setting: (dose: 4.0 mg/kg/injection, schedule: Q01DX009 (ip), vehicle: Klucel (hydroxypropylcellulose) (HPC)) 93 % of control; (dose: 8.0 mg/kg/injection, schedule: Q01DX009 (ip), vehicle: Klucel (hydroxypropylcellulose) (HPC)) 101 % of control; (dose: 16.0 mg/kg/injection, schedule: Q01DX009 (ip), vehicle: Klucel (hydroxypropylcellulose) (HPC)) 110 % of control; (dose: 32.0 mg/kg/injection, schedule: Q01DX009 (ip), vehicle: Klucel (hydroxypropylcellulose) (HPC)) 100 % of control.

As for `CC(C)c1c[nH]c(=O)[nH]c1=O`, the T/C was 100 % of control (dose: 100.0 mg/kg/injection, schedule: Q01DX001 (ip), vehicle: saline); 104 % of control under setting [10]; 95 % of control (dose: 200.0 mg/kg/injection, schedule: Q01DX001 (ip), vehicle: saline); 90 % of control under setting [11]; 100 % of control (dose: 400.0 mg/kg/injection, schedule: Q01DX001 (ip), vehicle: saline); 104 % of control under setting [12].

As for `CC1(C)N=C(N)N=C(N)N1c1ccc(OCC(=O)N2CCOCC2)c(Cl)c1`, the T/C (dose: 66.0 mg/kg/injection, schedule: Q01DX009 (ip), vehicle: saline) was 107 % of control; the T/C (dose: 100.0 mg/kg/injection, schedule: Q01DX009 (ip), vehicle: saline sonified) was 172 % of control; the T/C under setting [9] is 103 % of control; the T/C (dose: 150.0 mg/kg/injection, schedule: Q01DX009 (ip), vehicle: saline) is 111 % of control.

For the compound `O=C1NC(c2ccccc2Cl)Nc2ccccc21` (stereo not drawn), the T/C is, setting by setting: under setting [14], 100 % of control and 115 % of control; under setting [15], 115 % of control and 120 % of control.

`CCN(C)c1ccc(/C=C/c2ccnc3ccccc23)cc1`: the T/C is, setting by setting: (dose: 12.5 mg/kg/injection, schedule: Q01DX009 (ip), vehicle: saline with Tween-80) 115 % of control; (dose: 25.0 mg/kg/injection, schedule: Q01DX009 (ip), vehicle: saline with Tween-80) 91 % of control; under setting [13], 99 % of control.

`C1CC[N-]CC1.C1CC[N-]CC1.[Cl][Pt+2]([Cl])([Cl])[Cl]`: the T/C was 95 % of control under setting [1] and 90 % of control under setting [3].
